Reference: patent US11214564B2, “Compounds with thymine skeleton for use in medicine” (TECHNISCHE UNIVERSITÄT DRESDEN, priority 2019, dated 2022)

The compounds below were run against HSP27 (Homo sapiens, UniProt P04792) (assay: Aggregation assay: HSP27 chaperone activity on heat-induced aggregation of citrate synthase). Details: compound 10 μM; 1.44 μM CS, 481 nM HSP27, 43° C., 500 nm.
Type: biochemical
Procedure: To test how small molecules affect the chaperone activity of HSP27, misfolding and aggregation of citrate synthase (CS), a well-known in vitro client protein of HSP27, was measured. Citrate synthase misfolds and aggregates when exposed to heat shock at 43° C. This heat denaturation is prevented or delayed in the presence of HSP27 (CS+HSP27) (Jakob et al. (1993)). […] The samples were incubated at 43° C. and the aggregation behavior of CS was monitored in a spectrometer (PerkinElmer LS55) at a wavelength of 500 nm. Substances inhibiting HSP27's chaperone activity lead to continued denaturation of the client protein and its aggregation in solution. This inhibition correlates with the strength of the interaction between HSP27 and the test substance, which is related to its binding efficiency.
In the reference experiment BVDU (CS+HSP27+BVDU) was tested at a concentration of 750 μM as previously described (Heinrich et al. (2016)).
The compounds according to the invention were tested at a concentration of 10 μM.

Sequence of HSP27 (P04792 whole entry): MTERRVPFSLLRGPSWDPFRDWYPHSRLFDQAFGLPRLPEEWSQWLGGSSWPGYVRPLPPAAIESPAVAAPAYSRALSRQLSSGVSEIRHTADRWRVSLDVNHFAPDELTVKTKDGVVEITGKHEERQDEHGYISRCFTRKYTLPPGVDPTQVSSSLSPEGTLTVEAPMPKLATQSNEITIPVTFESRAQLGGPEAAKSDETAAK

aggregation value related to the value from reference experiment (CS + HSP27 + BVDU), which was set at 1.0	SMILES
1.46	Cc1cn(-c2ccc(NC(=O)c3cccc(-c4cccc(OC(F)(F)F)c4)c3)cc2)c(=O)[nH]c1=O [Compound 47, N-(4-(5-methyl-2,4-dioxo-3,4-dihydro-pyrimidin-1(2H)-yl)phenyl)-3′-(trifluoro-methoxy)-[1,1′-biphenyl]-3-carboxamide]
0.79	COc1ccc(-c2cccc(CC(=O)Nc3ccc(-n4cc(Cl)c(=O)[nH]c4=O)cc3)c2)cc1Cl [Compound 30, N-(4-(5-chloro-2,4-dioxo-3,4-dihydro-pyrimidin-1(2H)-yl)phenyl)-2-(3′-chloro-4′-methoxy-[1,1′-biphenyl]-3-yl)acetamide]
1.21	COc1ccc(-c2cccc(CC(=O)Nc3ccc(-n4ccc(=O)[nH]c4=O)c(Cl)c3)c2)cc1Cl [Compound 13, 2-(3′-chloro-4′-methoxy-[1,1′-biphenyl]-3-yl)-N-(3-chloro-4-(2,4-dioxo-3,4-dihydro-pyrimidin-1(2H)-yl)phenyl) acetamide]
1.55	O=C(Nc1ccc(Cn2ccc(=O)[nH]c2=O)cc1)c1cccc(-c2cccc(OC(F)(F)F)c2)c1 [Compound 35, N-(4-((2,4-dioxo-3,4-dihydro-pyrimidin-1(2H)-yl)methyl)phenyl)-3′-(trifluoro-methoxy)-[1,1′-biphenyl]-3-carboxamide]
1.28	Cc1cn(-c2ccc(NC(=O)Cc3cccc(-c4cccc(OC(F)(F)F)c4)c3)cc2)c(=O)[nH]c1=O [Compound 11, N-(4-(5-methyl-2,4-dioxo-3,4-dihydro-pyrimidin-1(2H)-yl)phenyl)-2-(3′-(trifluoro-methoxy)-[1,1′-biphenyl]-3-yl) acetamide]
1.23	O=C(Nc1ccc(Cn2ccc(=O)[nH]c2=O)cc1)c1cccc(-c2cccc(Cl)c2)c1 [Compound 36, 3′-chloro-N-(4-((2,4-dioxo-3,4-dihydro-pyrimidin-1(2H)-yl)methyl)phenyl)-[1,1′-biphenyl]-3-carboxamide]
0.88	COc1ccc(-c2cccc(CC(=O)Nc3ccc(-n4ccc(=O)[nH]c4=O)cc3F)c2)cc1Cl [Compound 25, 2-(3′-chloro-4′-methoxy-[1,1′-biphenyl]-3-yl)-N-(4-(2,4-dioxo-3,4-dihydro-pyrimidin-1(2H)-yl)-2-fluoro-phenyl)acetamide]
1.35	Cc1cn(-c2ccc(NC(=O)Cc3cccc(-c4ccc(Cl)cc4Cl)c3)cc2)c(=O)[nH]c1=O [Compound 7, 2-(2′,4′-dichloro-[1,1′-biphenyl]-3-yl)-N-(4-(5-methyl-2,4-dioxo-3,4-dihydro-pyrimidin-1(2H)-yl)phenyl) acetamide]
1.3	Cc1cn(-c2ccc(NC(=O)Cc3cccc(-c4cccc(C(F)(F)F)c4)c3)cc2)c(=O)[nH]c1=O [Compound 9, N-(4-(5-methyl-2,4-dioxo-3,4-dihydro-pyrimidin-1(2H)-yl)phenyl)-2-(3′-(trifluoromethyl)-[1,1′-biphenyl]-3-yl)acetamide]
1.38	Cc1ccc(-c2cccc(CC(=O)Nc3ccc(-n4cc(C)c(=O)[nH]c4=O)cc3)c2)cc1Cl [Compound 6, 2-(3′-chloro-4′-methyl-[1,1′-biphenyl]-3-yl)-N-(4-(5-methyl-2,4-dioxo-3,4-dihydropyrimidin-1(2H)-yl)phenyl) acetamide]
0.66	Cc1cccc(-c2cccc(C(=O)Nc3ccc(-n4ccc(=O)[nH]c4=O)cc3)c2)c1 [Compound 42, N-(4-(2,4-dioxo-3,4-dihydro-pyrimidin-1(2H)-yl)phenyl)-3′-methyl-[1,1′-biphenyl]-3-carboxamide]
1.33	Cc1cn(-c2ccc(NC(=O)Cc3cccc(-c4ccc(OC(C)C)c(Cl)c4)c3)cc2)c(=O)[nH]c1=O [Compound 23, 2-(3′-chloro-4′-isopropoxy-[1,1′-biphenyl]-3-yl)-N-(4-(5-methyl-2,4-dioxo-3,4-dihydropyrimidin-1(2H)-yl)phenyl) acetamide]
1.3	Cc1ccc(-c2cccc(CC(=O)Nc3ccc(-n4ccc(=O)[nH]c4=O)cc3C)c2)cc1Cl [Compound 10, 2-(3′-chloro-4′-methyl-[1,1′-biphenyl]-3-yl)-N-(4-(2,4-dioxo-3,4-dihydro-pyrimidin-1(2H)-yl)-2-methyl-phenyl)acetamide]
0.75	COc1cccc(-c2cccc(C(=O)Nc3ccc(-n4cc(C)c(=O)[nH]c4=O)cc3)c2)c1 [Compound 46, 3′-methoxy-N-(4-(5-methyl-2,4-dioxo-3,4-dihydro-pyrimidin-1(2H)-yl)phenyl)-[1,1′-biphenyl]-3-carboxamide]
0.85	O=C(Cc1cccc(-c2cccc(Cl)c2)c1)Nc1ccc(-n2ccc(=O)[nH]c2=O)cc1 [Compound 26, 2-(3′-chloro-[1,1′-biphenyl]-3-yl)-N-(4-(2,4-dioxo-3,4-dihydro-pyrimidin-1(2H)-yl)phenyl) acetamide]
1.05	O=C(Cc1ccc(Cl)c(Cl)c1)NCc1cn(-c2ccc(-n3ccc(=O)[nH]c3=O)cc2)nn1 [Compound 55, 2-(3,4-Dichlorophenyl)-N-((1-(4-(2,4-dioxo-3,4-dihydropyrimidin-1(2H)-yl)phenyl)-1H-1,2,3-triazol-4-yl)methyl)acetamide]
1.67	O=C(Cc1cn(-c2ccc(-n3ccc(=O)[nH]c3=O)cc2)nn1)NCc1ccc(Cl)c(Cl)c1 [Compound 53]
0.69	Cc1cccc(-c2cccc(CC(=O)Nc3ccc(-n4ccc(=O)[nH]c4=O)cc3)c2)c1 [Compound 33, N-(4-(2,4-dioxo-3,4-dihydro-pyrimidin-1(2H)-yl)phenyl)-2-(3′-methyl-[1,1′-biphenyl]-3-yl) acetamide]
1.34	CC(C)Oc1ccc(-c2cccc(CC(=O)Nc3ccc(-n4ccc(=O)[nH]c4=O)cc3)c2)cc1Cl [Compound 8, 2-(3′-chloro-4′-isopropoxy-[1,1′-biphenyl]-3-yl)-N-(4-(2,4-dioxo-3,4-dihydro-pyrimidin-1(2H)-yl)phenyl) acetamide]
0.76	O=C(Cc1cccc(-c2ccc(Cl)c(Cl)c2)c1)Nc1ccc(-n2ccc(=O)[nH]c2=O)cc1F [Compound 32, 2-(3′,4′-dichloro-[1,1′-biphenyl]-3-yl)-N-(4-(2,4-dioxo-3,4-dihydro-pyrimidin-1(2H)-yl)-2-fluoro-phenyl)acetamide]
1.04	O=C(Cc1cccc(-c2ccc(Cl)cc2)c1)Nc1ccc(-n2cc(F)c(=O)[nH]c2=O)cc1 [Compound 16, 2-(4′-chloro-[1,1′-biphenyl]-3-yl)-N-(4-(5-fluoro-2,4-dioxo-3,4-dihydro-pyrimidin-1(2H)-yl)phenyl) acetamide]
0.78	COc1ccc(-c2cccc(CC(=O)Nc3ccc(-n4cc(C)c(=O)[nH]c4=O)cc3)c2)cc1 [Compound 31, 2-(4′-methoxy-[1,1′-biphenyl]-3-yl)-N-(4-(5-methyl-2,4-dioxo-3,4-dihydro-pyrimidin-1(2H)-yl)phenyl) acetamide]
0.91	COc1cccc(-c2cccc(CC(=O)Nc3ccc(-n4cc(C)c(=O)[nH]c4=O)cc3)c2)c1 [Compound 22, 2-(3′-methoxy-[1,1′-biphenyl]-3-yl)-N-(4-(5-methyl-2,4-dioxo-3,4-dihydro-pyrimidin-1(2H)-yl)phenyl) acetamide]
1.76	COc1ccc(-c2cccc(CC(=O)Nc3ccc(-n4cc(C)c(=O)[nH]c4=O)cc3)c2)cc1Cl [Compound 1, 2-(3′-Chloro-4′-methoxy-[1,1′-biphenyl]-3-yl)-N-(4-(5-methyl-2,4-dioxo-3,4-dihydropyrimidin-1(2H)-yl)phenyl)acetamide]
0.82	O=C(Cc1cccc(-c2cccc(OC(F)(F)F)c2)c1)Nc1ccc(-n2ccc(=O)[nH]c2=O)cc1F [Compound 28, N-(4-(2,4-dioxo-3,4-dihydro-pyrimidin-1(2H)-yl)-2-fluoro-phenyl)-2-(3′-(trifluoro-methoxy)-[1,1′-biphenyl]-3-yl) acetamide]
0.73	Cc1ccc(-c2cccc(C(=O)Nc3ccc(-n4ccc(=O)[nH]c4=O)cc3)c2)cc1Cl [Compound 50, 3′-chloro-N-(4-(2,4-dioxo-3,4-dihydro-pyrimidin-1(2H)-yl)phenyl)-4′-methyl-[1,1′-biphenyl]-3-carboxamide]

SMILES	aggregation value related to the value from reference experiment (CS + HSP27 + BVDU), which was set at 1.0
O=C(Cc1cn(-c2ccc(-n3ccc(=O)[nH]c3=O)cc2)nn1)Nc1ccc(Cl)c(Cl)c1 [Compound 52, N-(3,4-dichlorophenyl)-2-(1-(4-(2,4-dioxo-3,4-dihydropyrimidin-1(2H)-yl)phenyl)-1H-1,2,3-triazol-4-yl)acetamide]	1
